Measurements from a melting point compilation (Tetko et al.; mined from patent text by program, amines drawn as free bases though some values may be those of a salt).

`O=C1CCCc2nc3ccccc3c(NCCCC(c3ccccc3)c3ccccc3)c21` gave a melting point of 86 to 88 °C.
Compound `CC(C)(C)c1ccc(-c2cccc(-c3ccc(C(C)(C)C)cc3)c2N)cc1` has a melting point of 106 °C.
Work on `CN(NC(=O)OCc1ccccc1)C(=O)NCC(F)F` yielded a melting point of 79 to 82 °C.
For `CCOc1ccc(CC2CCN(CCCCNC(=O)c3ccc(-c4ccc(C(F)(F)F)cc4)cc3)CC2)c(OCC)c1`, the melting point was 136 to 137 °C.
With `COc1ccc(OC)c2c1C(=O)C=C(SCCCCO)C2=O` the melting point was 122 to 123 °C.
`COc1ccccc1-c1nc(C)c(C(N)=O)s1` showed a melting point of 191 to 192 °C.
With `CCOC(=O)C1=Cc2cc(C#C[Si](C)(C)C)ccc2NC1C(F)(F)F` (stereo not drawn) the melting point was 117 to 119 °C.
`CCCCCCCCCCCCCCCCCC1OCC(COC(O)CCC)O1` (stereo not drawn) gave a melting point of 34 to 44 °C.
`O=Cc1cc2cc(OCc3ccccc3)ccc2nc1Cl` showed a melting point of 180 to 182 °C.
`CC(C)(CO)Oc1ccccc1` showed a melting point of 91 to 92 °C.
Work on `COCCOc1cc(-c2ccccn2)nc(-c2ccccn2)c1` yielded a melting point of 105 to 106 °C.
With `Cc1cc(N)nc(CCc2nc3cc(-c4ccc(C(F)(F)F)cc4)cnc3[nH]2)c1` the melting point was 170 °C.
Compound `CC(=O)Oc1cccc2oc(C(=O)OCc3ccc(Cl)cc3)c(C)c12` has a melting point of 95 to 100 °C.
`O=C(Nc1ccc(-n2nc(C3CC3)cc2C2CC2)cc1)Nc1ccc2ncccc2c1` showed a melting point of 102 to 104 °C.
Compound `CN(Cc1ccc(NC(=O)C2=Cc3cc(-c4ccc5c(c4)CCCO5)ccc3S(=O)(=O)CC2)cc1)C1CCOCC1` has a melting point of 245 to 249 °C.
In the case of `CNC1CN(C(=O)Nc2ccc(C(F)(F)F)cc2)N=C1c1ccc(Cl)cc1` (stereo not drawn), the melting point is reported as 148 to 149 °C.
For `N#CSCCNc1ccc(Cl)cc1[N+](=O)[O-]`, the melting point was 154 to 155 °C.
`CCOC(=O)c1sc2c(ccc(=O)n2-c2ccccc2)c1Br` gave a melting point of 202 to 206 °C.
For `CCN(CC)CCC1CCN(C(=O)N2c3ccccc3C(=O)Nc3cccnc32)CC1`, the melting point was 154 °C.
For `CNC(=O)ON=C(Nc1ccc(C(F)(F)F)cc1)C1=NN(c2ccc(Cl)cc2)C(c2ccc(F)cc2)C1` (stereo not drawn), the melting point was 75 to 77 °C.
With `CS(=O)(=O)NC(CCCCCc1ccc(Cl)cc1)C(=O)O` (stereo not drawn) the melting point was 73 to 75 °C.
`CC(C)(C)N(NC(=O)c1ccccn1)C(=O)c1ccccc1[N+](=O)[O-]` gave a melting point of 137 to 140 °C.
`CCOC(=O)c1ccc(-c2nc3ccccc3s2)cc1` showed a melting point of 132 to 134 °C.
For `Cc1cc(-c2nnc3c4ccccc4c(OCc4ncn(C)n4)nn23)on1`, the melting point was 270 to 272 °C.
For `Clc1cc2nc(-c3csc(Cc4c(Cl)cccc4Cl)n3)[nH]c2cc1Cl`, the melting point was 245 to 247 °C.
Work on `Nc1ccccc1C(=O)/C=C/c1nccn1C(c1ccccc1)(c1ccccc1)c1ccccc1` yielded a melting point of 142 to 144 °C.
For `Cc1ccc(Cc2ccc(-c3ccccc3)cc2)cc1`, the melting point was 87 °C.
For `CC1(C)CC(c2ccccn2)c2cc(C#N)ccc2O1` (stereo not drawn), the melting point was 114 to 115 °C.
In the case of `O=C1CC(c2cccc(-n3ccnc3)c2)=Nc2cc(OCCO)c(C#Cc3ccc(F)cc3)cc2N1`, the melting point is reported as 220 to 222 °C.
For `CCOC(=O)NC(=O)n1c(-c2cc(OC)c(O)c(OC)c2)nc(-c2ccc(N(CC)CC)cc2)c1-c1ccc(N(CC)CC)cc1`, the melting point was 60 °C.
In the case of `Cc1cccc(C2c3cc(NC(=O)CC(C)(C)C)c(C)c(C)c3OC2(C)C)c1` (stereo not drawn), the melting point is reported as 156 to 157 °C.
`CC1(C)CC(C)(C)CC(C)(NC=O)C1` gave a melting point of 104 to 106 °C.
Work on `N#Cc1cc(O)cc2nc(-c3ccc(O)c(F)c3)oc12` yielded a melting point of 308 to 310 °C.
`O=C(O)COc1cccc2c1CC(S(=O)(=O)Cc1ccccc1)c1sc(-c3ccc(F)cc3)nc1-2` (stereo not drawn) gave a melting point of 210 to 211 °C.
`CC(=O)N[C@@H](C)c1ccc(CCl)cc1` showed a melting point of 114 to 116 °C.
`CCC12CCC3C4CCC(=O)C=C4C(C)CC3C1CCC2O` (stereo not drawn) gave a melting point of 127 to 130 °C.
In the case of `CCOC(=O)c1cc([N+](=O)[O-])ccc1NC(=O)OC(C)(C)C`, the melting point is reported as 118 to 121 °C.
For `CC1(C)CCc2ccccc2C1n1cncc1C1SCCS1` (stereo not drawn), the melting point was 109 °C.
With `CCCc1c(OCCCOc2ccc(C(=O)O)cc2Br)ccc(C(C)=O)c1OC(C)=O` the melting point was 125 to 127 °C.
`Cc1nc(NC(=O)NS(=O)(=O)c2cccc3c2nnn3C)nc2c1CCO2` gave a melting point of 234 to 240 °C.
`Nc1cc(C(=O)O)cc(OCc2ccccc2)c1C(=O)c1ccc(Cl)cc1` gave a melting point of 196 to 197 °C.
`CC(C)=CCCC(C)=CCOc1ccc(OCC=C(C)CCC=C(C)C)c(C(=O)NCCc2ccncc2)c1` showed a melting point of 59.1 to 60.6 °C.
For `CCOC(=O)N1CCN(c2ccc(Cl)nn2)CC1`, the melting point was 124 °C.
For `c1cn(CC2(CCCC3CCCC3)SCCS2)cn1`, the melting point was 136 to 137 °C.
In the case of `CC(C)c1nn(-c2ccc(C(F)(F)F)cn2)cc1CCCOc1cc(CCC(=O)O)n(C(C)C)n1`, the melting point is reported as 130 to 131 °C.
Work on `CC(=O)Nc1c(C(=O)c2ccc3ccccc3c2)[nH]c2cc(Cl)ccc12` yielded a melting point of 167 to 169 °C.
Work on `CC(C)S(=O)(=O)c1cccc(OS(C)(=O)=O)n1` yielded a melting point of 70.5 to 71.5 °C.
With `CS(=O)(=O)c1ccc(-c2cnc3cnc(-c4ccc(O)cc4)nc3c2)cc1` the melting point was 306 to 307 °C.
